Results from ChEMBL document CHEMBL5325394, “What We Have Gained from Ibogaine: α3β4 Nicotinic Acetylcholine Receptor Inhibitors as Treatments for Substance Use Disorders” (J Med Chem, 2023).
pIC50, pKi: −log10 of the molar value. Where a SMILES comes first, the peptide text is derived from it. Bridges are numbered along the chain shown (N, C = ends).

Columns and labels:
[1] = target: T1, Neuronal acetylcholine receptor; alpha3/beta4 (Homo sapiens, UniProt P30926+P32297); experiment: Partial agonist activity at alpha3beta4 nAChR in HEK293 cells assessed as reduction in Ca+2 influx by FLIPR assy; format: cell-based
[2] = target: T2, Neuronal acetylcholine receptor; alpha4/beta2 (Homo sapiens, UniProt P17787+P43681); experiment: Partial agonist activity at alpha4beta2 nAChR in HEK293 cells assessed as reduction in Ca+2 influx by FLIPR assy; format: cell-based
[3] = target: T1, Neuronal acetylcholine receptor; alpha3/beta4; experiment: Antagonist activity at nAChR alpha3beta4 in human SH-SY5Y cells assessed as increase in intracellular calcium level preincubated for 10 mins followed by nicotine addition measured after 30 mins by FLIPR assay; format: cell-based
[4] = target: T3, Neuronal acetylcholine receptor subunit alpha-7 (Homo sapiens, UniProt P36544); experiment: Antagonist activity at nAChR alpha7 in human SH-SY5Y cells assessed as increase in intracellular calcium level preincubated for 10 mins followed by choline addition measured after 30 mins by FLIPR assay; format: cell-based
[5] = target: Mu-type opioid receptor (Bos taurus, UniProt P79350); experiment: Displacement of [3H]-DAGO from calf cortex MOR receptor assessed as inhibition constant; format: tissue-based
[6] = Displacement of [3H]-DPDPE from calf caudate nucleus DOR receptor assessed as inhibition constant; format: tissue-based, Bos taurus
[7] = Displacement of [3H]-GR-65,630 from 5-HT3 receptor in mouse NG-108 cells assessed as inhibition constant; format: cell-based; settings: ng-108 cell
[8] = target: T4, Muscarinic acetylcholine receptor M1 (Bos taurus, UniProt Q8WMX0); experiment: Displacement of [3H]-pirenzepine from calf cortex Muscarinic M1 receptor assessed as inhibition constant; format: tissue-based
T4 sequence (Q8WMX0 whole entry): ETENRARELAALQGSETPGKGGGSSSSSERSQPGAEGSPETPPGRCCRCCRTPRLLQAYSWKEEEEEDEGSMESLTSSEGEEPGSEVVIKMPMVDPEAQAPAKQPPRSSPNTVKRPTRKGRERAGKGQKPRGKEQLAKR

[9] = target: Sigma intracellular receptor 2 (Bos taurus, UniProt Q3MHW7); experiment: Displacement of [3H]-DTG from calf hippocampus sigma 2 receptor assessed as inhibition constant; format: tissue-based
[10] = Displacement of [3H]-BTX-B from bovine cortex sodium channel assessed as inhibition constant; format: tissue-based, Bos taurus
[11] = target: T1, Neuronal acetylcholine receptor; alpha3/beta4; experiment: Antagonist activity at recombinant alpha3beta4 nAChR in HEK293 cells by voltage-clamp based electrophysiological method; format: cell-based
[12] = target: T2, Neuronal acetylcholine receptor; alpha4/beta2; experiment: Antagonist activity at alpha4beta2 nAChR in HEK293 cells by voltage-clamp based electrophysiological method; format: cell-based
[13] = target: T1, Neuronal acetylcholine receptor; alpha3/beta4; experiment: Antagonist activity at human alpha3beta4 nAChRs expressed in HEK293 cells assessed as inhibition of (+/-)-epibatidine-induced Ca+2 influx incubated for 5 mins by FLIPR analysis; format: cell-based
[14] = target: T1, Neuronal acetylcholine receptor; alpha3/beta4; experiment: Displacement of [3H]imipramine from human alpha3beta4 nAChRs expressed in HEK293 cells assessed as inhibition constant incubated for 2 hrs by scintillation counter analysis; format: cell-based
[15] = target: T2, Neuronal acetylcholine receptor; alpha4/beta2; experiment: Inhibition of nAChR alpha4beta2 receptor (unknown origin); format: protein-complex assay
[16] = target: T3, Neuronal acetylcholine receptor subunit alpha-7; experiment: Inhibition of nAChR alpha7 receptor (unknown origin) assessed as inhibition of calcium flux
[17] = target: T1, Neuronal acetylcholine receptor; alpha3/beta4; experiment: Inhibition of alpha3beta4 nAChRs (unknown origin); format: protein-complex assay

T2 sequence (P17787 whole entry): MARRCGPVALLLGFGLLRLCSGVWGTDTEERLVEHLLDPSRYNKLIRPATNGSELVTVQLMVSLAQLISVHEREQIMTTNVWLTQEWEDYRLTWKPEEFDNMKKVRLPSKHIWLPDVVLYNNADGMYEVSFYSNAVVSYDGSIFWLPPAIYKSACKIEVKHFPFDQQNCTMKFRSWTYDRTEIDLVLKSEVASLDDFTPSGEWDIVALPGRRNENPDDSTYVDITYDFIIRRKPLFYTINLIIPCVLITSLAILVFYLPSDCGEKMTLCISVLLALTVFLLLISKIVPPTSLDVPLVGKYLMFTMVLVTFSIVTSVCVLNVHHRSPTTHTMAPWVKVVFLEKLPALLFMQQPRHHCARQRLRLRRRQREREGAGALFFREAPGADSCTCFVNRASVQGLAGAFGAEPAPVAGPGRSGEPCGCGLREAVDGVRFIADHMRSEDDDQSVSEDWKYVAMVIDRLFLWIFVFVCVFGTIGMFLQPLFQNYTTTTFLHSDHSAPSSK
T2 sequence (P43681 whole entry): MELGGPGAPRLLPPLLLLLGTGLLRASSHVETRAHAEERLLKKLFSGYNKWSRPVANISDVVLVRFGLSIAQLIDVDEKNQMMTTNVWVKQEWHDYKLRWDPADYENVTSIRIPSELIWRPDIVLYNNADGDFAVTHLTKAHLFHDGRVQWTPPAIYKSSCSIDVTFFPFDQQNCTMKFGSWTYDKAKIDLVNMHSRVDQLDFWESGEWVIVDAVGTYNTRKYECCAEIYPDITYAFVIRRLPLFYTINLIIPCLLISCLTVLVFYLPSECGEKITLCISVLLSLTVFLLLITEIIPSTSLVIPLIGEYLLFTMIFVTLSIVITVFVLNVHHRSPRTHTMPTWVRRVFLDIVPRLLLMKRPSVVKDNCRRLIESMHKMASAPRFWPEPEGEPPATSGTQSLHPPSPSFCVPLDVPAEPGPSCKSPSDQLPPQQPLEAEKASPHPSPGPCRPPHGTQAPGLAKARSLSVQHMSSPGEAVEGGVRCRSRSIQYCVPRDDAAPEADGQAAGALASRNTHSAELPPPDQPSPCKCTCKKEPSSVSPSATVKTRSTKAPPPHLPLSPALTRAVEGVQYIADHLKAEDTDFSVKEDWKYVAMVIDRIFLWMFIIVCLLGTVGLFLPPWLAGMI
T1 sequence (P30926 whole entry): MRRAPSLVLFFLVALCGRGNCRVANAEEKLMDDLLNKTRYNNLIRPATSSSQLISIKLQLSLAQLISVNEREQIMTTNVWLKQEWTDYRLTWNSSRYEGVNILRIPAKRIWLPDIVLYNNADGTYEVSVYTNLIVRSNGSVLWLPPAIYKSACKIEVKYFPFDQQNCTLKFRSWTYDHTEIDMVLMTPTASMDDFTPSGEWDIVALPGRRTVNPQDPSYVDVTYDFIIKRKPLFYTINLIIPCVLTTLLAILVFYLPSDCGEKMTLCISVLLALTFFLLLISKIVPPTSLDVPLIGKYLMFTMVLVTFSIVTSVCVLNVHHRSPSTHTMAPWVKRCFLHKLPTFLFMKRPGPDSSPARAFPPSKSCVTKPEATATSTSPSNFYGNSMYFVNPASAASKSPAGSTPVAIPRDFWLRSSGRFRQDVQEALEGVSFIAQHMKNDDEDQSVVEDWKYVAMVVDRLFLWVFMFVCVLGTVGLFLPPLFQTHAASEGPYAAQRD
T1 sequence (P32297 whole entry): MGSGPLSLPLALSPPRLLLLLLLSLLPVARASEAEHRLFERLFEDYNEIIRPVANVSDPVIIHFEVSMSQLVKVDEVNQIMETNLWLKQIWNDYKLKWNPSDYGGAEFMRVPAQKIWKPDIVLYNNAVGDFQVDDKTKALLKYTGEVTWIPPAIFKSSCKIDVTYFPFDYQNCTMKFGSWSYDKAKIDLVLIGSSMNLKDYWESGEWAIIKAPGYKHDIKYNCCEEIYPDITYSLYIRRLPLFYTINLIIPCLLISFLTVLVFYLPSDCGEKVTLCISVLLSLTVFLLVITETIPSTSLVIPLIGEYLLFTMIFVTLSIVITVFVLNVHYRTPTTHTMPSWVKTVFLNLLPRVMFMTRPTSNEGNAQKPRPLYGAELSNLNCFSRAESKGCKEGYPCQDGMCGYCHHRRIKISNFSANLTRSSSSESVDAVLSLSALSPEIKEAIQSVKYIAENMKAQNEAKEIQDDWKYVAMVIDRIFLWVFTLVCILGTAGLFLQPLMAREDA
T3 sequence (P36544 whole entry): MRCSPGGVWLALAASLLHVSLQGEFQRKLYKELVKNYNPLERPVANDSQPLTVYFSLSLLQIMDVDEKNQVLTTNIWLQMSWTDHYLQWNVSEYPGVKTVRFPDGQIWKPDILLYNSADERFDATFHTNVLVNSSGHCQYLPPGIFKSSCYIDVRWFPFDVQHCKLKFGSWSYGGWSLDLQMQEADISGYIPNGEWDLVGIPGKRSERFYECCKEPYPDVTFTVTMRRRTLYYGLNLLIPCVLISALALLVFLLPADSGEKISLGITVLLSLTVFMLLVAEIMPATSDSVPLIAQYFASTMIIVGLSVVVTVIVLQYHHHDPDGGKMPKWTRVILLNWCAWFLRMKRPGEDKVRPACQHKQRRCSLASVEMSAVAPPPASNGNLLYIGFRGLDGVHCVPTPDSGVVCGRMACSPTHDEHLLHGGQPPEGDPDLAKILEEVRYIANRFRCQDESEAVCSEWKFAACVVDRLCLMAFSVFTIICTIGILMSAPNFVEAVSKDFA
Mu-type opioid receptor, sequence (P79350 whole entry): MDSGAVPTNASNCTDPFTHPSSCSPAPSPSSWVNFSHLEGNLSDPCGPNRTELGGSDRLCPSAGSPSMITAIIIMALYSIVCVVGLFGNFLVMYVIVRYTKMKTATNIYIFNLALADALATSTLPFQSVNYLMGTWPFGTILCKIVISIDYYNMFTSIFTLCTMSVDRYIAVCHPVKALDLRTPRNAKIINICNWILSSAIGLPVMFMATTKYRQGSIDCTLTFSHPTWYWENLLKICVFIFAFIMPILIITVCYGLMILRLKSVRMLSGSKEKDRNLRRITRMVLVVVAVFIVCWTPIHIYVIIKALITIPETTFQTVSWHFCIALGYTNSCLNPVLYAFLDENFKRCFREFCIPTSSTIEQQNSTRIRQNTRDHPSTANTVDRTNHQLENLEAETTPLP
Sigma intracellular receptor 2, sequence (Q3MHW7 whole entry): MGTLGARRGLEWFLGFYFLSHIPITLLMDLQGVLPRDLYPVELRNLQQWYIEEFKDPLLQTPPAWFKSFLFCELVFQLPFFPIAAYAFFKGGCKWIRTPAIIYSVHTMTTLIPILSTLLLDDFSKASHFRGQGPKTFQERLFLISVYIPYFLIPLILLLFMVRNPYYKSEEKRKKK

`FC(F)(F)c1ccc2c(c1)[C@@H]1CNC[C@H]2C1` gave a pIC50 [1] of 6.59 and a pIC50 [2] of 6.96.

Work on `CC[C@H](C)[C@@H]1NC(=O)[C@H](CC(N)=O)NC(=O)[C@@H]2CCCN2C(=O)[C@H](CC(N)=O)NC(=O)[C@H](CC(N)=O)NC(=O)[C@H](C(C)C)NC(=O)[C@H](CCSC)NC(=O)[C@@H]2CSSC[C@H](NC(=O)CNC(=O)[C@@H](N)CO)C(=O)N[C@@H](CSSC[C@@H](C(=O)O)NC1=O)C(=O)N[C@@H](CO)C(=O)N[C@@H](CC(N)=O)C(=O)N1CCC[C@H]1C(=O)N[C@@H](C)C(=O)N2` (H-SGCCSNPACMVNNPNIC-OH; disulfide 3-9, 4-17) yielded a pIC50 [3] of 6.36 and a pIC50 [4] of 6.62.

For `CC[C@H](C)[C@@H]1NC(=O)[C@H](CC(N)=O)NC(=O)[C@@H]2CCCN2C(=O)[C@H](CC(N)=O)NC(=O)[C@H](CC(C)C)NC(=O)[C@H](C(C)C)NC(=O)[C@H](CCCNC(=N)N)NC(=O)[C@@H]2CSSC[C@H](NC(=O)CNC(=O)[C@@H](N)CO)C(=O)N[C@@H](CSSC[C@@H](C(=O)O)NC1=O)C(=O)N[C@@H](CO)C(=O)N[C@@H](CC(N)=O)C(=O)N1CCC[C@H]1C(=O)N[C@@H](C)C(=O)N2` (H-SGCCSNPACRVLNPNIC-OH; disulfide 3-9, 4-17), the pIC50 [3] was 6.20 and the pIC50 [4] was 5.59.

For `CC[C@H](C)[C@@H]1NC(=O)[C@H](CC(N)=O)NC(=O)[C@@H]2CCCN2C(=O)[C@H](CC(N)=O)NC(=O)[C@H](CC(C)C)NC(=O)[C@H](C(C)C)NC(=O)[C@H](Cc2ccccc2)NC(=O)[C@@H]2CSSC[C@H](NC(=O)CNC(=O)[C@@H](N)CO)C(=O)N[C@@H](CSSC[C@@H](C(=O)O)NC1=O)C(=O)N[C@@H](CO)C(=O)N[C@@H](CC(N)=O)C(=O)N1CCC[C@H]1C(=O)N[C@@H](C)C(=O)N2` (H-SGCCSNPACFVLNPNIC-OH; disulfide 3-9, 4-17), the pIC50 [3] was 6.39 and the pIC50 [4] was less than 4.00.

For `COCC[C@H]1C[C@H]2CN3CCc4c([nH]c5ccc(OC)cc45)[C@](C(=O)OC)(C2)[C@H]13` (racemic), the pKi [5] was 8.96, the pKi [6] was 8.46 and the pKi [7] was 8.42. The pKi [8] was 7.49, the pKi [9] was 7.89 and the pKi [10] was 8.19. The pIC50 [11] was 6.12, the pIC50 [12] was less than 4.70 and the pIC50 [13] was 5.83. The pKi [14] was 6.40, the pIC50 [15] was 5.20 and the pIC50 [16] was 4.46.

In the case of `CC(C)C[C@@H]1NC(=O)[C@H](C(C)C)NC(=O)[C@H](C)NC(=O)[C@@H]2CSSC[C@H](NC(=O)CN)C(=O)N[C@@H](CSSC[C@@H](C(=O)O)NC(=O)[C@H](Cc3ccc(O)cc3)NC1=O)C(=O)N[C@@H](CO)C(=O)N[C@@H]([C@@H](C)O)C(=O)N1CCC[C@H]1C(=O)N1CCC[C@H]1C(=O)N2` (H-GCCSTPPCAVLYC-OH; disulfide 2-8, 3-13), the pIC50 [17] was 7.56.
